{"source": "patent US7947854B2", "about": "“Bis-cationic compounds and use thereof” (The University of Sydney, priority 2003, dated 2011)", "key": {"T. mentagrophytes": {"tested_on": "T. mentagrophytes", "assay": "Susceptibility of dermatophytes, broth microdilution NCCLS M38-P", "format": "cell-based", "conditions": "100% growth inhibition, 28° C.; for MIC: Trichophyton mentagrophytes", "method": "(§1) Isolates were tested using the method described in the National Committee for Clinical Laboratory Standards (NCCLS) document M38-P for filamentous fungi, with dermatophyte specific modifications described by Fernández-Torres et al, Current topics in Medical Mycology, 14-19 Feb. 1999.\n(§2) Five dermatophyte isolates were, namely; T. rubrum, T. mentagrophytes, T. tonsurans, M. canis and M. gypseum, all of which produce lipases and some, phospholipase. These isolates were tested by the broth microdilution method according to NCCLS document M38-P, for activity against selected antifungal agents. In addition, ten randomly selected isolates of T. tonsurans were also tested. All isolates were maintained on SDA at 28° C. Candida parapsilosis (ATCC 20019) was used as the reference control is organism.\n(§3) The microdilution plates used were a single lot of RPMI 1640 basal medium (JRH bioScience Inc. Lenexa, Kans., USA) with L-glutamine and without sodium bicarbonate, buffered to pH 7.0, at 25° C., with 0.165 M (MOPS) morpholinepropanesulfonic acid (Sigma).\n(§4) Powdered drugs were dissolved in 100% dimethyl sulfoxide (DMSO), at concentrations 100 times higher than the final test concentration. All compounds were prepared in 100% (DMSO). For ITRA and TRB, two-fold drug dilutions were prepared in 100% DMSO at 100 times the final concentration, followed by further dilution 1:50 in RPMI medium, to yield 2× the final strength required for the test.\n(§5) Fungal cultures were subcultured onto Potato Dextrose Agar and grown at 28° C. for 7-10 days. Fungal suspensions were covered with 5 ml of distilled water, and then colonies were scraped off with cotton tipped swabs. The resulting mixture of conidia and hyphae elements was withdrawn, transferred to a sterile tube and then vortexed with glass beads. After the particles settled, the upper homogeneous suspension was collected and its density adjusted by a densitometer to a 0.5 McFarland standard at the wavelength of 530 nm (80-85% transmittance). These stock suspensions were then diluted 1:50 with RPMI medium to obtain final working inoculum concentration ranging from 0.3×10^4 to 9×10^4 CFU/ml. Inoculum quantification was performed by plating 100 μl of the 1:1000 dilution of the adjusted inoculum on SDA plates, incubated at 28° C., and after 7 days of incubation, the colonies were counted.\n(§6) Testing was based on NCCLS M38-P document for testing filamentous moulds. Testing was carried out in sterile 96-well flat bottomed microtitre plate. Columns 1 and 3 to 12 were filled with 100 μl of RPMI medium, leaving column 2 unfilled. Columns 1, 2 and 3 were filled with 100 μl of 2× drug concentration. Serial dilutions were then made by transferring 100 μl from column 3 to each column up to column 11, and 100 μl from column 11 was discarded. Column 12 served as drug free growth control. Finally, 100 μl of inoculum suspension was added to all wells except column 1, which acted as sterility control (Columns 1 and 12 served as sterility and growth control respectively). Plates were incubated at 28° C. for 7 days, and read at 3 days and 7 days of incubation. All testing was performed in duplicate, on three separate occasions.\n(§7) Growth in microtitre trays were read by visual inspection by using an illuminated-reversed mirror. Growth in each well was compared with the “growth control” drug free well. The MIC end point for all the drugs was chosen to be the first well with 100% growth inhibition (i.e. the lowest drug concentration inhibiting growth)."}, "[1]": {"tested_on": "ten randomly selected isolates of T. tonsurans", "assay": "Susceptibility of ten T. tonsurans isolates, broth microdilution NCCLS M38-P", "format": "cell-based", "conditions": "for MIC: Trichophyton tonsurans", "method": "as §1, §2, §3, §4, §5, §6, §7"}}, "note": "Where two headings read alike, the source gives them in different places.", "data": [{"smiles": "CCCC[N+](CCCC)(CCCC)CCCCCCCCCCCC[N+](CCCC)(CCCC)CCCC", "note": "[Compound 3, 1,12-bis(tributylammonium)do-decane dibromide]", "values": [{"measurement": "MIC Range, T. mentagrophyte", "setting": "T. mentagrophytes", "value": 3.8, "unit": "µg/mL"}, {"measurement": "MIC", "setting": "T. mentagrophytes; read-out: MIC GM, T. mentagrophyte", "value": 3.8, "unit": "µg/mL"}, {"measurement": "MIC", "setting": "T. mentagrophytes; read-out: MIC Mean, T. mentagrophyte", "value": 3.8, "unit": "µg/mL"}, {"measurement": "MIC Range", "setting": "[1]; T. tonsurans 1", "value": "1.9 to 3.8", "unit": "µg/mL"}, {"measurement": "MIC Range", "setting": "[1]; T. tonsurans 2", "value": "0.45 to 7.6", "unit": "µg/mL"}, {"measurement": "MIC Range", "setting": "[1]; T. tonsurans 4", "value": "0.45 to 3.8", "unit": "µg/mL"}, {"measurement": "MIC Range", "setting": "[1]; T. tonsurans 5", "value": "0.45 to 7.6", "unit": "µg/mL"}, {"measurement": "MIC Range", "setting": "[1]; T. tonsurans 6", "value": "0.45 to 15.25", "unit": "µg/mL"}, {"measurement": "MIC Range", "setting": "[1]; T. tonsurans 7", "value": "0.45 to 3.8", "unit": "µg/mL"}, {"measurement": "MIC Range", "setting": "[1]; T. tonsurans 8", "value": "0.45 to 3.8", "unit": "µg/mL"}, {"measurement": "MIC Range", "setting": "[1]; T. tonsurans 9", "value": "3.8 to 15.25", "unit": "µg/mL"}, {"measurement": "MIC Range", "setting": "[1]; T. tonsurans 10", "value": "3.8 to 7.6", "unit": "µg/mL"}, {"measurement": "MIC Range", "setting": "[1]; T.tonsurans 3", "value": "0.45 to 3.8", "unit": "µg/mL"}, {"measurement": "MIC", "setting": "[1]; T. tonsurans 1, read-out: MIC GM", "value": 3.02, "unit": "µg/mL"}, {"measurement": "MIC", "setting": "[1]; T. tonsurans 2, read-out: MIC GM", "value": 1.15, "unit": "µg/mL"}, {"measurement": "MIC", "setting": "[1]; T. tonsurans 2, read-out: MIC Mean", "value": 2.83, "unit": "µg/mL"}, {"measurement": "MIC", "setting": "[1]; T. tonsurans 4, read-out: MIC GM", "value": 1.87, "unit": "µg/mL"}, {"measurement": "MIC", "setting": "[1]; T. tonsurans 4, read-out: MIC Mean", "value": 2.68, "unit": "µg/mL"}, {"measurement": "MIC", "setting": "[1]; T. tonsurans 5, read-out: MIC GM", "value": 2.96, "unit": "µg/mL"}, {"measurement": "MIC", "setting": "[1]; T. tonsurans 5, read-out: MIC Mean", "value": 5.22, "unit": "µg/mL"}, {"measurement": "MIC", "setting": "[1]; T. tonsurans 6, read-out: MIC GM", "value": 4.32, "unit": "µg/mL"}, {"measurement": "MIC", "setting": "[1]; T. tonsurans 6, read-out: MIC Mean", "value": 6.94, "unit": "µg/mL"}, {"measurement": "MIC", "setting": "[1]; T. tonsurans 7, read-out: MIC GM", "value": 1.87, "unit": "µg/mL"}, {"measurement": "MIC", "setting": "[1]; T. tonsurans 7, read-out: MIC Mean", "value": 2.68, "unit": "µg/mL"}, {"measurement": "MIC", "setting": "[1]; T. tonsurans 8, read-out: MIC GM", "value": 2.48, "unit": "µg/mL"}, {"measurement": "MIC", "setting": "[1]; T. tonsurans 8, read-out: MIC Mean", "value": 3.13, "unit": "µg/mL"}, {"measurement": "MIC", "setting": "[1]; T. tonsurans 9, read-out: MIC GM", "value": 6.04, "unit": "µg/mL"}, {"measurement": "MIC", "setting": "[1]; T. tonsurans 9, read-out: MIC Mean", "value": 7.61, "unit": "µg/mL"}, {"measurement": "MIC", "setting": "[1]; T. tonsurans 10, read-out: MIC GM", "value": 4.52, "unit": "µg/mL"}, {"measurement": "MIC", "setting": "[1]; T. tonsurans 10, read-out: MIC Mean", "value": 4.75, "unit": "µg/mL"}, {"measurement": "MIC", "setting": "[1]; T.tonsurans 3, read-out: MIC GM", "value": 1.87, "unit": "µg/mL"}, {"measurement": "MIC", "setting": "[1]; T.tonsurans 3, read-out: MIC Mean", "value": 2.68, "unit": "µg/mL"}, {"measurement": "MIC", "setting": "[1]; read-out: MIC Mean, T. tonsurans 1", "value": 3.17, "unit": "µg/mL"}]}]}
